Source: patent publication US20090118285A1, “USE OF KCNQ-OPENERS FOR TREATING OR REDUCING THE SYMPTOMS OF SCHIZOPHRENIA” (H. Lundbeck A/S, priority 2006, published 2009)

Experiments:
[1] = system: DA neurons in the VTA; assay: Spontaneous DA cell firing in the VTA of anaesthetised rats (in vivo electrophysiology); design: species or system rat; conditions: mean ± SEM
Excerpt: In the mesolimbic system, all clinically used neuroleptics initially increase the firing rate of dopaminergic neurons (Tung et al., 1991, J. Neural Transm. Gen Sect., 84(1-2), 53-64,). After chronic administration, such neuroleptics eventually (after 3-4 weeks of treatment) decrease the firing rate to below pre-treatment levels (Skarsfeldt 1992, Synapse, 10, 25-33; White and Wang 1983, Science, 221, 1054-1057). This inhibitory effect on dopaminergic neurones, which is believed to be mediated by a depolarization blockade, is thought to be of therapeutic significance to the antipsychotic effect of neuroleptics (Grace and Bunney 1986, J. Pharmacol. Exp. Ther. 238, 1092-1100). […] The presence of KCNQ subunits on DA neurons in the VTA in rodents is well-documented but their functionality is unknown (Saganich et al. 2001, J. Neurosci. 21(13)4609-4624; Cooper et al. 2001, J. Neurosci., 21(24)9529-9540).
Subjects. Male Wistar rats (Harlan, The Netherlands) weighing 270-340 g were used. The animals were housed under a 12-hr light/dark cycle under controlled conditions for regular in-door temperature (21±2° C.) and humidity (55±5%) with food and tap water available ad libitum.
Experimental procedure. The rats were anaesthetised with an intraperitoneal injection of chloral hydrate (400 mg/kg). A femoral vein catheter was then inserted for supplementary anaesthetic injections (100 mg/kg) and drug administration. Animals were then mounted in a stereotaxic frame, the skull was exposed, and a hole (0.5×0.5 cm) was drilled above the ventral tegmental area. Extracellular single-cell recordings were performed using electrodes pulled from glass capillaries and filled with 2% Pontamine Sky Blue in 2 M NaCl. The tip of the electrode was broken under microscopic control, yielding an impedance of 2.0-8.0 MΩ at 135 Hz. The electrode was then lowered into the brain, using a hydraulic microdrive, aimed at the following coordinates: 5.5-5.0 mm posterior to Bregma; 0.5-0.9 mm lateral to the midline. Extracellular action potentials were amplified, discriminated and monitored on an oscilloscope and an audiomonitor. Discriminated spikes were collected and analysed using Spike 2 software (Cambridge Electronic Design Ltd., Cambridge, UK) on a PC-based system connected to a CED 1401 interface unit (Cambridge Electronic Design Ltd.). Presumed dopaminergic neurons were typically found 7.0-8.5 mm beneath the brain surface and were characterised by (1) a slow and irregular firing pattern (0.5-10 Hz), and (2) triphasic action potentials with a predominant positive component, a negative component followed by a minor positive component, with an overall duration >2.5 ms (Bunney et al. 1973, J. Pharmacol. Exp. Ther., 185, 560-571.).
Administration of compounds. […] These i.v. doses match the s.c. dose range of 0-10 mg/kg.
Statistical analysis. Drug effects were assessed by statistical comparison of the mean firing rate calculated from the 2-3 min period immediately before the first drug administration (baseline) to the mean firing rate calculated from at least 60 s at the maximal drug effect. Data were analysed statistically by a one-way ANOVA followed by Student-Newman-Keuls posthoc test. A p-value less than 0.05 was considered significant.

[2] = system: KCNQ channels; conditions: Wuttke et al. 2005; cited from earlier work

For `CCOC(=O)Nc1ccc(NCc2ccc(F)cc2)cc1N`, which “Spontaneous DA cell firing rate” value ([1]; cumulated dose 0.3 mg/kg i.v.) is on record?
Its value is 95.4 ± 5.0 (4) percentage of baseline firing rate.

And the “Spontaneous DA cell firing rate” value ([1]; cumulated dose 1.0 mg/kg i.v.)?
The value was 90.5 ± 4.6 (5) percentage of baseline firing rate.

What about the “Spontaneous DA cell firing rate” value ([1]; cumulated dose 2.0 mg/kg i.v.) of the same compound?
Its value is 81.1 ± 5.1 (5) percentage of baseline firing rate.

And the “Spontaneous DA cell firing rate” value ([1]; cumulated dose 4.0 mg/kg i.v.)?
The value was 67.1 ± 3.7 (4) percentage of baseline firing rate.

What about the “Spontaneous DA cell firing rate” value ([1]; cumulated dose 6.0 mg/kg i.v.) of the same compound?
Its value is 60.6 ± 0.7 (2) percentage of baseline firing rate.

What about the “Binding to KCNQ channels” value [2] of the same compound?
The value was “bind to KCNQ channels”.
